According to ChEMBL document CHEMBL1201862, “PubChem BioAssay data set” (2004):
Calls of active or inactive are those of the source.

Experiments:
[1] = biological target: T1, Heat shock factor protein 1 (Mus musculus, UniProt P38532); experiment: decrease of HSF1-responsive luciferase luminescence – cell-based, NIH3T3, dose retest, confirmation (AID 2382); format: functional;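 also: NIH3T3 fibroblasts with HSF1-driven luciferase reporter stressed by proteasome inhibitor MG132; luminescence from HSF1-driven luciferase expression after 8 hours of MG132 stress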
T1 sequence (P38532 whole entry): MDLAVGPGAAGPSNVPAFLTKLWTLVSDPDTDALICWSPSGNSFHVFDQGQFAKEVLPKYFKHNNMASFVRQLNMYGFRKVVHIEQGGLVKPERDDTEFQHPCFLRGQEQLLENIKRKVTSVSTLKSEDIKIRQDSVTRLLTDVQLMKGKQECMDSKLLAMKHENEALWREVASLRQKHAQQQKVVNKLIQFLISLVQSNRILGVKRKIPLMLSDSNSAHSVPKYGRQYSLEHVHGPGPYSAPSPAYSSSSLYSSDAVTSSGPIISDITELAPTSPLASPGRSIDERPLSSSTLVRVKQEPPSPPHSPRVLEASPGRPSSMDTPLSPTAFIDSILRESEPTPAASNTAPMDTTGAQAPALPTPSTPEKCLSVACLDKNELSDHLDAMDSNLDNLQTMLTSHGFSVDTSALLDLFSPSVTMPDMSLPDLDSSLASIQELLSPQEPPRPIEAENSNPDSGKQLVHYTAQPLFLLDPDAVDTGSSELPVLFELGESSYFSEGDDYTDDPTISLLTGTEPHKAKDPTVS

[2] = biological target: Cytochrome P450 2C19 (Homo sapiens, UniProt P33261); experiment: Cytochrome panel assay with activity outcomes. Panel member name: p450-cyp2c19 Compounds with AC50 equal or less than 10 uM are considered active; format: functional; details: read-out: AC50
Cytochrome P450 2C19, sequence (P33261 whole entry): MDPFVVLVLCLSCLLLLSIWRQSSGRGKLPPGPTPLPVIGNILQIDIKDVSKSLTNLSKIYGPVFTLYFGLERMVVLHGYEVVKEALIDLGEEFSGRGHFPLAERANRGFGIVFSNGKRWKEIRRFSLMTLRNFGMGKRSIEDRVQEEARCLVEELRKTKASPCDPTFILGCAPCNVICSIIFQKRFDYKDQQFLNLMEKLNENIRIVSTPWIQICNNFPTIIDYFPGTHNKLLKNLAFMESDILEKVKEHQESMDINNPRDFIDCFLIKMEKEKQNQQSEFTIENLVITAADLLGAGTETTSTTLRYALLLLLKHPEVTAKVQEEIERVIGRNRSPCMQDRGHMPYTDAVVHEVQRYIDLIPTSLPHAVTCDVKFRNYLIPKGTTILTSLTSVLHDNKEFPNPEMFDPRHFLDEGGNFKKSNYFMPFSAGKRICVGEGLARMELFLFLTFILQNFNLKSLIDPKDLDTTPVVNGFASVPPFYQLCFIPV

[3] = biological target: Cytochrome P450 3A4 (Homo sapiens, UniProt P08684);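 also: CYP3A4 tested as one member of a cytochrome P450 panel screen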
Cytochrome P450 3A4, sequence (P08684 whole entry): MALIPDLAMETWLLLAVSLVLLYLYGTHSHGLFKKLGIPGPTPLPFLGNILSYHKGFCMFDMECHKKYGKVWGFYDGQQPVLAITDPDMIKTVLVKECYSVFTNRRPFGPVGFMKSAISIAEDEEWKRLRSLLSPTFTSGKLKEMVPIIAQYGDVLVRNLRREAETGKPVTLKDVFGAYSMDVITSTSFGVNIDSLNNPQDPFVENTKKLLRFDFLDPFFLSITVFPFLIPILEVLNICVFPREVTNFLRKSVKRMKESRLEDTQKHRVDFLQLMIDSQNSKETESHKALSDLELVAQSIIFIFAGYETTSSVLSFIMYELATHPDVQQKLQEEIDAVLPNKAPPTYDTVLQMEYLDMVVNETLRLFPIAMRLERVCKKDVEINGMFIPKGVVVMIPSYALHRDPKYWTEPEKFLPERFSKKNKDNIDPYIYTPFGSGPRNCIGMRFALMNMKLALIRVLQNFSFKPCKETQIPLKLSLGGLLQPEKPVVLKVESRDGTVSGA

[4] = biological target: Cytochrome P450 2C9 (Homo sapiens, UniProt P11712)
Cytochrome P450 2C9, sequence (P11712 whole entry): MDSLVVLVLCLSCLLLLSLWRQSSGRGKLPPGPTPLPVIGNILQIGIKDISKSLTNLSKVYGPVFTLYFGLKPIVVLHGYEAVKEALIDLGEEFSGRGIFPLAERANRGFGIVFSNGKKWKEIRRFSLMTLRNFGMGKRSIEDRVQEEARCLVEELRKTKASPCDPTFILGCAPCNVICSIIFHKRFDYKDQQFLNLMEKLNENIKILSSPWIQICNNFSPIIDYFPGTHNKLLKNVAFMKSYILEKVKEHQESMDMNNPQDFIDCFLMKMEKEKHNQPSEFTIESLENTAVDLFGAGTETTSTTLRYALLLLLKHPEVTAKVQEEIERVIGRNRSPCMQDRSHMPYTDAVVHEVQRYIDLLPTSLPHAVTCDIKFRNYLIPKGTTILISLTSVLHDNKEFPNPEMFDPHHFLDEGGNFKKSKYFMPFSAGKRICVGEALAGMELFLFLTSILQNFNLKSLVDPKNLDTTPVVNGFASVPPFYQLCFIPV

[5] = biological target: T1, Heat shock factor protein 1; experiment: enhancement of HSF1-driven luciferase signal – cell-based, NIH3T3, luminescence, dose retest, confirmation (AID 435004); format: functional;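 also: stress induced by proteasome inhibitor MG132 added 30 min after compound; luciferase reporter driven by HSF1 response element in NIH3T3 cells; actives raise luminescence as potentiators of the MG132 stress response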
[6] = tested on: Streptococcus; experiment: GAS UMAA2166 growth inhibition – luminescence, BacTiterGlo, counter-screen for streptokinase expression inhibitor project, dose response (AID 1915); format: functional, organism-based;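 also: potency for reduction of bacterial viability or growth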
[7] = biological target: T2, Streptokinase A (Streptococcus pyogenes serotype M1, UniProt P10520); experiment: viability-normalized secreted streptokinase activity reduction – plasminogen activation absorbance, OD405, dose response (AID 1914); format: functional, Streptococcus pyogenes M1 GAS;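 also: secreted streptokinase activity via plasminogen activation per viability signal from cell pellet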
T2 sequence (P10520 whole entry): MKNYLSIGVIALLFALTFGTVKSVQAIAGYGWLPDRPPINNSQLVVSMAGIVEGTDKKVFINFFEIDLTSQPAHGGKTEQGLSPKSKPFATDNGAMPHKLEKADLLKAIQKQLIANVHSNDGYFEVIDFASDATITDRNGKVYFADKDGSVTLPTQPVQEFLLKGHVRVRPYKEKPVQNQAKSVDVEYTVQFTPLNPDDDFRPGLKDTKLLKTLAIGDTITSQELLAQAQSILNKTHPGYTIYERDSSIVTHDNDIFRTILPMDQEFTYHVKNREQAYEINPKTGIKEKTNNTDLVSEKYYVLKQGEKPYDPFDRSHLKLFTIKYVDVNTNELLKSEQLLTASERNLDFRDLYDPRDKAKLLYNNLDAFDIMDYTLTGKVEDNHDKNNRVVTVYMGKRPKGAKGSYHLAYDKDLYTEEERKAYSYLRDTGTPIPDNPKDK

[8] = tested on: Streptococcus sp. 'group A'; experiment: Streptococcus pyogenes SK(-)GAS viability under kanamycin – luminescence, BacTiterGlo, confirmation, counter-screen for streptokinase expression inhibitor project, dose response (AID 1900); format: functional, organism-based
[9] = fluconazole-exposed Candida albicans growth modulators – fluorescence, retest, confirmation (AID 2467); format: functional, cell-based
[10] = NIH-3T3 fibroblast cytotoxicity, dose response, cytotoxicity control, cell-based, fluorescence, Alamar Blue, secondary assay (AID 2327); format: functional;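 also: NIH-3T3 mouse fibroblasts cultured with fluconazole at 8 µg/mL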
[11] = Luminescence Cell-Based Dose Retest to Confirm Inhibitors of Cancer Stem Cells. [Related pubchem assays (depositor defined):AID2717, AID2721]; format: functional; details: Homo sapiens
[12] = tested on: INS1; experiment: INS-1E survival protection against cytokine death – cell-based, luminescence, retest, dose response (AID 449756); format: functional; details: Rattus norvegicus;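 also: cell death triggered by IL-1 beta plus TNF-alpha plus IFN-gamma mixture; protective hits raise ATP signal compared with cytokine alone wells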
[13] = viability of uninfected HEp-2 cells – cell-based, HTS, cytotoxicity control for RSV inhibitor project, dose response (AID 2410); format: functional; details: human respiratory syncytial virus
[14] = NIH3T3 cell viability loss – ATP luminescence, mouse fibroblasts, counter-screen, dose response (AID 2010); format: functional, cell-based;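 also: cells exposed to compound for about 90 hours before reading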
[15] = Trypanosoma cruzi growth suppression in host cells – NIH3T3 host cells, beta-gal luminescence, confirmation (AID 2044); format: functional, cell-based;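 also: intracellular parasites grown in NIH/3T3 mouse fibroblasts as host cells; luminescent beta-galactosidase reporter signal from transgenic T. cruzi replicating inside host cells; inhibitors lower the luminescence signal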
[16] = loss of viability in HepG2 cells – cell-based, CellTiter-Glo, cherry-picked, cytotoxicity control for Shn3 inhibitor project, dose response (AID 624134); format: functional
[17] = reduction of Shn3 3'UTR-driven luciferase in osteoblasts – cell-based, Clone20 osteoblasts, firefly luciferase, cherry-picked, dose response (AID 624132); format: functional;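 also: firefly luciferase luminescence from reporter carrying the Shn3 3'UTR in osteoblasts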
[18] = non-specific 3'UTR reporter inhibition in Clone20-Shn3RL – cell-based, Renilla luciferase, cherry-picked, counter-screen for Shn3 inhibitor project, dose response (AID 624133); format: functional

## Cc1cccc(NC2(C(F)(F)F)N=C(c3ccccc3)NC2=O)n1 (stereo unspecified)
[1]
  EC50: 71.7 µM (active)
[2]
  AC50: 8.91 µM (inconclusive)
[3]
  AC50: 15.8 µM (inconclusive)
[4]
  AC50: 12.6 µM (inconclusive)

## Nc1cc(-c2ccco2)no1
[5]
  EC50: 60.4 µM (active)

## O=C(Cc1ccccc1)NCCS(=O)(=O)N1CCN(c2ccccc2)CC1
[6]
  EC50: > 150 µM (not active)
[7]
  EC50: > 150 µM (not active)
[8]
  EC50: > 150 µM (not active)

## Cc1cc(-c2cc(C(=O)O)c3ccccc3n2)c(C)s1
[9]
  EC50: 3.94 µM (active)
[10]
  EC50: > 160 µM (inactive)

## CNc1ccc(OC)cc1-n1cnc(-c2ccc([N+](=O)[O-])cc2)c1
[9]
  EC50: > 38 µM (not active)
[10]
  EC50: > 150 µM (inactive)

## C(=C\c1nc(N2CCCCCC2)c2ccccc2n1)/c1ccccc1
[11]
  AC50: 3.73 µM (active)
[12]
  AC50: 6.21 µM (active)

## Clc1cccc(-c2nn3c(Cn4cnc5ccccc54)nnc3s2)c1
[13]
  CC50: > 50 µM (active)

## Cc1ccccc1-n1c(C)nc2ccccc21
[1]
  EC50: > 195 µM (not active)

## O=C(COC(=O)CNC(=O)c1ccccc1F)Nc1cccnc1Cl
[1]
  EC50: > 195 µM (not active)

## Cc1ccc(N2C(=O)NC(NS(=O)(=O)c3ccccc3)(C(F)(F)F)C2=O)cc1 (stereo unspecified)
[1]
  EC50: > 195 µM (not active)

## CCC(C(=O)OCC(=O)Nc1cc(Cl)ccc1Cl)c1ccccc1 (stereo unspecified)
[1]
  EC50: > 195 µM (not active)

## CCN(CC)CCN(C(=O)CCS(=O)(=O)c1ccccc1)c1nc2cc(C)cc(C)c2s1
[6]
  EC50: > 150 µM (not active)
[7]
  EC50: > 150 µM (not active)
[14]
  EC50: > 30 µM (not active)
[8]
  EC50: > 150 µM (not active)
[15]
  EC50: 0.697 µM (active)

## CNC(=O)/C(C#N)=C\c1cc(C)n(-c2ccc(N3CCOCC3)cc2)c1C
[6]
  EC50: 98.2 µM (active)
[7]
  EC50: > 150 µM (not active)
[8]
  EC50: 30.4 µM (active)

## CCOC(=O)C1=C(c2ccccc2)N=C(S)NC1c1cc([N+](=O)[O-])ccc1OC (stereo unspecified)
[13]
  CC50: > 50 µM (active)

## N#C/C(=C(/O)c1ccco1)c1nc2ccccc2[nH]1
[9]
  EC50: 4.11 µM (active)
[10]
  EC50: > 150 µM (inactive)

## COCCCN1C(=O)c2[nH]nc(-c3ccccc3O)c2C1c1cccc(Cl)c1 (stereo unspecified)
[5]
  EC50: 59.7 µM (active)

## Cc1ccc(Cn2ccc(=O)c(OCc3c(Cl)cccc3Cl)c2C)cc1
[6]
  EC50: > 150 µM (not active)
[16]
  AC50: 60.6 µM (active)
[7]
  EC50: 13.7 µM (active)
[8]
  EC50: 6.66 µM (active)
[17]
  AC50: 6.11 µM (active)
[18]
  AC50: 6.57 µM (active)

## CC(=O)OC(C)C(=O)NS(=O)(=O)c1ccc(C)cc1 (stereo unspecified)
[5]
  EC50: > 260 µM (inactive)

## O=C(CCc1nnc(Cc2ccc(-c3ccccc3)cc2)o1)N1CCCC1
[5]
  EC50: > 260 µM (inactive)

## O=C(c1ccc2nccnc2c1)N1CCCC(Nc2ccc(F)c(F)c2)C1 (stereo unspecified)
[5]
  EC50: > 260 µM (inactive)

## CCc1cccc(NC(=O)c2cccc(S(=O)(=O)N3CCN(C)CC3)c2)c1
[5]
  EC50: > 260 µM (inactive)

## COc1cc(/C=N/NC(=S)NC2CC3C=CC2C3)cc(OC)c1OC (stereo unspecified)
[5]
  EC50: > 260 µM (inactive)

## Clc1ccc(-c2cs/c(=N\c3cccnc3)n2CCCn2ccnc2)cc1Cl
[13]
  CC50: 15.4 µM (active)

## NC(=O)CN1CCCC1=O
[1]
  EC50: > 195 µM (not active)

## Nc1ncnc2c1ncn2[C@@H]1O[C@H](CO)C[C@H]1O [CORDYCEPIN]
[9]
  EC50: 4.1 µM (active)
[10]
  EC50: > 150 µM (inconclusive)
